This note sets out measurements from patent publication US20190388425A1, “SUBSTITUTED IMIDAZOPYRIDINPYRIMIDINES” (Bayer Pharma Aktiengesellschaft, priority 2017, published 2019).

pIC50: −log10 of the molar value.

T1 sequence (Q9BUB5 1-424 isoform Q9BUB5-2 T344D): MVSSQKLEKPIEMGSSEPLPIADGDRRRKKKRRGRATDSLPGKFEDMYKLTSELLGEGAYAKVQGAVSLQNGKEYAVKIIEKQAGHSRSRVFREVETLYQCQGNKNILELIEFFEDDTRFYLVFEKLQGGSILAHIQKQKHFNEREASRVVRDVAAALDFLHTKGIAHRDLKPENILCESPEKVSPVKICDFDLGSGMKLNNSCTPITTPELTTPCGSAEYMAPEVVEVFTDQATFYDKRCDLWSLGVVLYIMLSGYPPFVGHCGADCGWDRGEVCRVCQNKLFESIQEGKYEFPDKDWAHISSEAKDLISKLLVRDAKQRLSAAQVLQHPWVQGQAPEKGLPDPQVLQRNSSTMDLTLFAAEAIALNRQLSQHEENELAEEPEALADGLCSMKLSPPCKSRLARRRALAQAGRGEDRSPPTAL

This assay addresses T1, human full-length MKNK1 (Homo sapiens, UniProt Q9BUB5, T385D).
T1 construct: GST (N); purchased Carna Biosciences 02-145; host or cells: insect cells (baculovirus expression system)
The assay is described as follows: MKNK1 kinase high ATP assay (TR-FRET). Type of assay: biochemical. Conditions: TR-FRET, 2 mM ATP (high ATP), 15 min preincubation with enzyme, 30 min reaction at 22° C.; read-out: MKNK1 IC50. The method, boiled down: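 Full-length human MKNK1 (T385D) preincubated 15 min at 22 °C with compound in HEPES pH 7.5/MgCl2/DTT buffer; reaction with 2 mM ATP (final) and 0.06 μM biotinylated peptide (final), 30 min at 22 °C.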
The term pIC50 denotes the negative decadic logarithm of the IC50, by convention in mol/L. As to `Cc1cc(Nc2ncnc3sc4c(c23)CC[C@H](C(=O)N2CC(N(C)C)C2)C4)c(=O)n2c1C(=O)NC21CSC1` [Example 48, 6-{[(7S)-7-{[3-(Dimethylamino)azetidin-1-yl]carbonyl}-5,6,7,8-tetrahydro[1]benzothieno[2,3-d]pyrimidin-4-yl]amino}-8-methyl-2H-spiro[imidazo[1,5-a]pyridine-3,3′-thietane]-1,5-dione], the negative logarithm of the IC50 (pIC50) is 9.40.

On to `O=C1NC2(CSC2)n2c1c(Cl)cc(Nc1ncnc3sc4c(c13)CC[C@H](C(=O)N1C[C@H]3C[C@@H]1CO3)C4)c2=O` [Example 108, 8-Chloro-6-({(7S)-7-[(1R,4R)-2-oxa-5-azabicyclo[2.2.1]heptane-5-carbonyl]-5,6,7,8-tetrahydro[1]benzothieno[2,3-d]pyrimidin-4-yl}amino)-2H-spiro[imidazo[1,5-a]pyridine-3,3′-thietane]-1,5-dione], for which the pIC50 is 9.10.

For `C[C@@H]1CN(C(=O)[C@H]2CCc3c(sc4ncnc(Nc5cc(Cl)c6n(c5=O)C5(CCCC5)NC6=O)c34)C2)CCN1C` [Example 91, 8′-Chloro-6′-({(7S)-7-[(3R)-3,4-dimethylpiperazine-1-carbonyl]-5,6,7,8-tetrahydro[1]benzothieno[2,3-d]pyrimidin-4-yl}amino)-2′H-spiro[cyclopentane-1,3′-imidazo[1,5-a]pyridine]-1′,5′-dione], the pIC50 was greater than 10.00.

With `CN(C)C(=O)[C@H]1CCc2c(sc3ncnc(Nc4cc(Cl)c5n(c4=O)C4(CCCC4)NC5=O)c23)C1` [Example 86, (7S)-4-[(8′-Chloro-1′,5′-dioxo-1′,5′-dihydro-2′H-spiro[cyclopentane-1,3′-imidazo[1,5-a]pyridin]-6′-yl)amino]-N,N-dimethyl-5,6,7,8-tetrahydro[1]benzothieno[2,3-d]pyrimidine-7-carboxamide], the pIC50 was 10.00.
